Data on 41 substances can be found in US12606816B2, “Inhibitory T cell receptor peptides and discovery methods” (JANUX THERAPEUTICS, INC., priority 2018, dated 2026).

By IC50 is commonly meant the concentration needed to halve the response being measured. By EC50 is commonly meant the concentration that produces a half-maximal response.

One experiment concerns the target HIV pMHC binding to anti-HIV TCR.
Test: not given
As to conditions: read-out: ELISA | IC50 | uM. A general note: ELISA stands for enzyme-linked immunosorbent assay.
On to “GGAFCVDTKPGLVCFEGGGGS[PEG4]Lys(biotin)- NH2”, for which the IC50 was determined as 112 µM.

The test system of another experiment is Mage-A3 sTCR. The experiment can be described thus: kdis (1/s).
Settings: not given
An excerpt:
Table printed on a drawing sheet, FIG. 4B
Head of the field: kdis (1/s)
Take VSCKDVYDEAFCW [Inhibitory peptide 1]: the “kdis” value was determined as 0.0282 s⁻¹.

For a further experiment, the system named is HIV TCR.
Test: not given
Particulars: read-out: ELISA | EC50 | uM.
Take “GGATCHLDNVYFLCDIGGGGS[PEG4]Lys(biotin)- NH2”: the concentration for a half-maximal effect (EC50) came out at 0.34 µM.

With “GGMLCNEGYWALSCFLGGGGS[PEG4]Lys(biotin)- NH2”, the 50% effective concentration (EC50) was 0.69 µM.

For “GGAFCVDTKPGLVCFEGGGGS[PEG4]Lys(biotin)- NH2”, the EC50 was 0.26 µM.

Take “GGVICTADGVYWLCDLGGGGS[PEG4]Lys(biotin)- NH2”: the concentration for a half-maximal effect (EC50) came to 1.29 µM.

As to “GGVTCSLGNVFYLCHDGGGGS[PEG4]Lys(biotin)- NH2”, the 50% effective concentration (EC50) turned out to be 0.39 µM.

“GGGTCFHGNTYFLCEDGGGGS[PEG4]Lys(biotin)- NH2”: the concentration for a half-maximal effect (EC50) is 0.29 µM.

For the substance “GGQTCIADNVYYLCPEGGGGS[PEG4]Lys(biotin)- NH2”, the concentration giving a half-maximal response (EC50) amounted to 0.82 µM.

In the case of “GGFTCVDGQVYYLCDSGGGGS[PEG4]Lys(biotin)- NH2”, the EC50 turned out to be 0.69 µM.

As to “GGTTCLEGGVYFLCADGGGGS[PEG4]Lys(biotin)- NH2”, the EC50 worked out at 0.74 µM.

For “GGLVCNDGNIWWLCEDGGGGS[PEG4]Lys(biotin)- NH2”, the 50% effective concentration (EC50) worked out at 0.88 µM.

As for “GGSNCYSLEPWIYCDTGGGGS[PEG4]Lys(biotin)- NH2”, the EC50 was 0.5 µM.

As to “GGQLCPEGYYALMCTDGGGGS[PEG4]Lys(biotin)- NH2”, the concentration for a half-maximal effect (EC50) turned out to be 0.15 µM.

With “GGLVCNDGVVFWLCDSGGGGS[PEG4]Lys(biotin)- NH2”, the concentration for a half-maximal effect (EC50) stood at 0.81 µM.

“GGLTCSSQNIYYLCSDGGGGS[PEG4]Lys(biotin)- NH2”: the concentration for a half-maximal effect (EC50) was found to be 0.4 µM.

“GGIECYPGFWALDCLYGGGGS[PEG4]Lys(biotin)- NH2”: the half-maximal effective concentration (EC50) is 0.43 µM.

“GGVTCNDGKIFYLCSDGGGGS[PEG4]Lys(biotin)- NH2”: the EC50 was 0.63 µM.

The test system of a further experiment is gp100 TCR.
Test: not given
As to conditions: read-out: ELISA | EC50 | uM.
As for “GGYCPLSYSQYDSPCYGGGGS[PEG4]Lys(biotin)-NH2”, the concentration for a half-maximal effect (EC50) amounted to 0.1 µM.

In the case of “GGFCRYVRYEFWDLCMGGGGS[PEG4]Lys(biotin)-NH2”, the EC50 came to 0.54 µM.

Regarding “GGHCYDTHSFPMYVCLGGGGS[PEG4]Lys(biotin)-NH2”, the EC50 is 2.58 µM.

Turning to “GGDICQWVRSMTECSWGGGGS[PEG4]Lys(biotin)-NH2”, the EC50 stood at 0.17 µM.

Regarding “GGYCYYDIDLDQFLCNGGGGS[PEG4]Lys(biotin)-NH2”, the EC50 amounted to 0.23 µM.

Consider “GGLCRAVEDMWVTSCMGGGGS[PEG4]Lys(biotin)-NH2”, for which the half-maximal effective concentration (EC50) worked out at 4.04 µM.

Turning to “GGICYDYMSGYDVVCMGGGGS[PEG4]Lys(biotin)-NH2”, the half-maximal effective concentration (EC50) came out at 0.11 µM.

Regarding “GGCHWEHVWGAGSFFCGGGGS[PEG4]Lys(biotin)-NH2”, the EC50 stood at 1.26 µM.

Consider “GGYDCNYDPSSHTCFYGGGGS[PEG4]Lys(biotin)-NH2”, for which the concentration for a half-maximal effect (EC50) was determined as 0.12 µM.

A further experiment deals with MAGE-A3 TCR / MAGE-A3 pMHC.
Test: not given
Particulars: read-out: ELISA | IC50 | uM.
For LVWGCIWDDMCSGGGGS[PEG4]Lys(biotin)-NH2, the IC50 is more than 100 µM.

As to “GGHCFVSPASGEWWCVGGGGS[PEG4]Lys(biotin)- NH2”, the IC50 is more than 100 µM.

“GGVSCKDVYDEAFCWTGGGGS[PEG4]Lys(biotin)- NH2”: the IC50 is 0.6 µM.

For another experiment, the system named is MAGE-A3 TCR.
Test: not given
Particulars: read-out: ELISA | EC50 | uM.
Regarding “GGSLCSLVYDQDFCESGGGGS[PEG4]Lys(biotin)- NH2”, the EC50 worked out at 0.16 µM.

For the substance LVWGCIWDDMCSGGGGS[PEG4]Lys(biotin)-NH2, the EC50 was 0.1 µM.

For “GGNSCSLVYDKAFCLFGGGGS[PEG4]Lys(biotin)- NH2”, the EC50 was 0.43 µM.

“GGTSCAQIYDFEFCYSGGGGS[PEG4]Lys(biotin)- NH2”: the EC50 turned out to be 0.17 µM.

For the substance “GGESCQSVYDSSFCYDGGGGS[PEG4]Lys(biotin)- NH2”, the half-maximal effective concentration (EC50) came out at 0.1 µM.

As for “GGHCFVSPASGEWWCVGGGGS[PEG4]Lys(biotin)- NH2”, the EC50 is 0.08 µM.

Consider “GGCSWIFDGLRYFSKCGGGGS[PEG4]Lys(biotin)- NH2”, for which the EC50 was found to be 0.15 µM.

For “GGSACSRIYDFAFCHTGGGGS[PEG4]Lys(biotin)- NH2”, the half-maximal effective concentration (EC50) came to 0.33 µM.

“GGTFCYFDHGLVNCQWGGGGS[PEG4]Lys(biotin)- NH2”: the 50% effective concentration (EC50) was 0.5 µM.

Take “GGRRCVDVYDNAFCLIGGGGS[PEG4]Lys(biotin)- NH2”: the concentration giving a half-maximal response (EC50) worked out at 0.25 µM.

Regarding “GGVSCKDVYDEAFCWTGGGGS[PEG4]Lys(biotin)- NH2”, the EC50 was determined as 0.01 µM.

Turning to “GGNQCWEVYDQEFCSLGGGGS[PEG4]Lys(biotin)- NH2”, the EC50 turned out to be 0.05 µM.

Turning to “GGNACEMTYDHTFCDPGGGGS[PEG4]Lys(biotin)- NH2”, the concentration giving a half-maximal response (EC50) worked out at 0.17 µM.

Take “GGRICEEVYDWIFCESGGGGS[PEG4]Lys(biotin)- NH2”: the EC50 was determined as 0.31 µM.

As to VRTWFEKFPELVGGGGS[PEG4]Lys(biotin)-NH2, the EC50 is 0.67 µM.
